We go through 14 compounds from ChEMBL document CHEMBL4002607, “Sulfamic and succinic acid derivatives of 25-OH-PPD and their activities to MCF-7, A-549, HCT-116, and BGC-823 cell lines” (Bioorg Med Chem Lett, 2017).

Structures are written as SMILES. Some results are limits rather than exact numbers.

Test [1] has as its system BGC-823. In words: Antiproliferative activity against human BGC823 cells assessed as cell viability at 40 uM after 48 hrs by MTT assay relative to control. The class given is functional. To be noted: BGC-823, 48 h, read-out: Activity. Background: Tetrazolium assays rely on reduction of a dye to a coloured formazan, in cell work by metabolically active cells.
Test [2] can be described thus: Antiproliferative activity against human IOSE-144 cells after 48 hrs by MTT assay. The format is cell-based. To be noted: IOSE-144, 48 h.
Test [3] has as its system HCT-116. Description: Antiproliferative activity against human HCT116 cells after 48 hrs by MTT assay. The class given is functional, cell-based.
Test [4] deals with A549. Description: Antiproliferative activity against human A549 cells assessed as cell viability at 20 uM after 48 hrs by MTT assay relative to control. The format is functional. Particulars: A549, 48 h, read-out: Activity; call rule not given here.
Test [5] has as its system A549. In words: Antiproliferative activity against human A549 cells after 48 hrs by MTT assay. The format is functional, cell-based.
The test system of test [6] is MCF7. Description: Antiproliferative activity against human MCF7 cells after 48 hrs by MTT assay. The class given is functional, cell-based. Particulars: MCF7, 48 h.
Test [7] has as its system BGC-823. In words: Antiproliferative activity against human BGC823 cells after 48 hrs by MTT assay. The class given is functional, cell-based. Particulars: BGC-823, 48 h.
[8] abbreviates: Homo sapiens, A549, 48 h, read-out: IC50.
Setting [9] is: Homo sapiens, HCT-116, 48 h, read-out: IC50.

Take `CC(C)(O)CCC[C@@](C)(O)[C@H]1CC[C@]2(C)[C@@H]1[C@H](O)C[C@@H]1[C@@]3(C)CC[C@H](OS(N)(=O)=O)C(C)(C)[C@@H]3CC[C@]12C`: the viability at 40 µM in test [1] stood at 40%. The IC50 in test [2] was > 100 µM; in test [3] (hct-116) it was “Not Active”; in test [5] (setting [8]), 0.2 µM; in test [6], 14.6 µM; in test [7], 14 µM. In addition, the viability at 20 µM in test [4] stood at 6%.

`CC(C)(O)CCC[C@@](C)(O)[C@H]1CC[C@]2(C)[C@@H]1[C@H](OC(=O)CCC(=O)O)C[C@@H]1[C@@]3(C)CC[C@H](OC(=O)CCC(=O)O)C(C)(C)[C@@H]3CC[C@]12C`: the half-maximal inhibitory concentration (IC50) in test [2] was > 100 µM; in test [3] (setting [9]) it was > 100 µM; in test [5] (setting [8]) it was > 100 µM; in test [6], 40.3 µM; in test [7], > 100 µM.

On to `CC(C)(O)CCC[C@@](C)(OS(N)(=O)=O)[C@H]1CC[C@]2(C)[C@@H]1[C@H](O)C[C@@H]1[C@@]3(C)CC[C@H](OS(N)(=O)=O)C(C)(C)[C@@H]3CC[C@]12C`, for which the viability at 40 µM in test [1] is 14.5%. In addition, the IC50 in test [2] is > 100 µM; in test [3] (setting [9]), 41.5 µM; in test [5] (setting [8]), 8.8 µM; in test [6], 12.4 µM; in test [7], 14.9 µM.

As to `C=C(CCC=C(C)C)[C@H]1CC[C@]2(C)[C@@H]1[C@H](OS(N)(=O)=O)C[C@@H]1[C@@]3(C)CC[C@H](O)C(C)(C)[C@@H]3CC[C@]12C`, the viability at 40 µM in test [1] amounted to 21.2%. Also, the IC50 in test [2] is > 100 µM; in test [3] (hct-116) it was “Not Active”; in test [5] (a549), “Not Active”; in test [6], 13.5 µM; in test [7], 25.9 µM.

As to `CC(C)(O)CCC[C@@](C)(O)[C@H]1CC[C@]2(C)[C@@H]1[C@H](OC(=O)CCC(=O)O)C[C@@H]1[C@@]3(C)CC[C@H](O)C(C)(C)[C@@H]3CC[C@]12C`, the 50% inhibitory concentration (IC50) in test [2] is > 100 µM; in test [3] (setting [9]) it was 75.3 µM; in test [5] (setting [8]), > 100 µM; in test [6] it was 77.1 µM; in test [7] it was > 100 µM.

Regarding `CC(C)=CCC[C@@](C)(O)[C@H]1CC[C@]2(C)[C@@H]1[C@H](OS(N)(=O)=O)C[C@@H]1[C@@]3(C)CC[C@H](O)C(C)(C)[C@@H]3CC[C@]12C`, the viability at 40 µM in test [1] came out at 19.9%. For the same compound, the IC50 in test [2] is > 100 µM; in test [3] (setting [9]), 57.9 µM; in test [5] (setting [8]), 23.8 µM; in test [6] it was 18.2 µM; in test [7] it was 25.5 µM.

In the case of `CC(C)=CCC[C@@](C)(O)[C@H]1CC[C@]2(C)[C@@H]1[C@H](O)C[C@@H]1[C@@]3(C)CC[C@H](OS(N)(=O)=O)C(C)(C)[C@@H]3CC[C@]12C`, the viability at 40 µM in test [1] is 17.1%. Also, the IC50 was > 100 µM in test [2]; 26.8 µM in test [3] (setting [9]); 9.9 µM in test [5] (setting [8]); 14.5 µM in test [6]; 22.1 µM in test [7].

Turning to `C=C(CCCC(C)(C)O)[C@H]1CC[C@]2(C)[C@@H]1[C@H](O)C[C@@H]1[C@@]3(C)CC[C@H](O)C(C)(C)[C@@H]3CC[C@]12C`, the IC50 in test [2] is > 100 µM; in test [3] (setting [9]) it was > 100 µM; in test [5] (setting [8]), 29.2 µM; in test [6], 32.9 µM; in test [7] it was 34.6 µM.

Consider `O=c1[nH]cc(F)c(=O)[nH]1` [FLUOROURACIL], for which the IC50 amounted to 29.2 µM in test [3] (setting [9]), 10.5 µM in test [5] (setting [8]), 19.2 µM in test [6] and 34.8 µM in test [7].

`C=C(CCCC(C)(C)OS(N)(=O)=O)[C@H]1CC[C@]2(C)[C@@H]1[C@H](O)C[C@@H]1[C@@]3(C)CC[C@H](O)C(C)(C)[C@@H]3CC[C@]12C`: the viability at 40 µM in test [1] turned out to be 39.9%. In addition, the IC50 in test [2] is > 100 µM; in test [3] (hct-116), “Not Active”; in test [5] (setting [8]) it was 13.7 µM; in test [6], 20.8 µM; in test [7] it was 32 µM.

As for `CC(C)(O)CCC[C@@](C)(O)[C@H]1CC[C@]2(C)[C@@H]1[C@H](O)C[C@@H]1[C@@]3(C)CC[C@H](O)C(C)(C)[C@@H]3CC[C@]12C`, in test [1], the viability at 40 µM stood at 40.1%. In addition, the concentration for half-maximal inhibition (IC50) was > 100 µM in test [2]; 21.5 µM in test [3] (setting [9]); 5.9 µM in test [5] (setting [8]); 7.5 µM in test [6]; 33.2 µM in test [7]. The viability at 20 µM in test [4] came out at 36.5%.

In the case of `C=C(CCCC(C)(C)O)[C@H]1CC[C@]2(C)[C@@H]1[C@H](O)C[C@@H]1[C@@]3(C)CC[C@H](OS(N)(=O)=O)C(C)(C)[C@@H]3CC[C@]12C`, the viability at 40 µM in test [1] was found to be 24.7%. Further, the IC50 was > 100 µM in test [2]; 42.4 µM in test [3] (setting [9]); 0.8 µM in test [5] (setting [8]); 11.9 µM in test [6]; 21.6 µM in test [7]. Moreover, the viability at 20 µM in test [4] is 9%.

Turning to `C=C(CCCC(C)(C)O)[C@H]1CC[C@]2(C)[C@@H]1[C@H](OS(N)(=O)=O)C[C@@H]1[C@@]3(C)CC[C@H](O)C(C)(C)[C@@H]3CC[C@]12C`, the IC50 in test [2] is > 100 µM; in test [3] (setting [9]), > 100 µM; in test [5] (setting [8]) it was 20.9 µM; in test [6] it was 33.8 µM; in test [7], > 100 µM.

Take `C=C(CCCC(C)(C)O)[C@H]1CC[C@]2(C)[C@@H]1[C@H](OS(N)(=O)=O)C[C@@H]1[C@@]3(C)CC[C@H](OS(N)(=O)=O)C(C)(C)[C@@H]3CC[C@]12C`: the IC50 in test [2] is > 100 µM; in test [3] (setting [9]), > 100 µM; in test [5] (setting [8]) it was 24.1 µM; in test [6], 30.3 µM; in test [7], 37.7 µM.

What is called IC50 is the concentration needed to halve the response being measured.
